{
  "source": "patent US20240189615A1",
  "about": "“METHOD AND SYSTEM FOR PRODUCING APOPTOTIC MONONUCLEAR CELLS” (MACO PHARMA, priority 2020, published 2024)",
  "key": {"[1]": {"tested_on": "JURKAT cells", "assay": "Inhibition of cell proliferation (Vi-cell counting)", "assay_type": "cell-based, human", "procedure": "The rate of inhibition of cell proliferation is determined by dividing the difference between the proliferation rate of the unirradiated control cells and the proliferation rate of the irradiated cells by the proliferation rate of the unirradiated control cells, the rate of cell proliferation being determined by dividing the total number of final cells by the total number of starting cells. The rate of inhibition of proliferation was determined 3 days after irradiation and after the cells had been cultured.\n(§1) To monitor the parameters of interest (apoptosis and inhibition of JURKAT proliferation), the cells were cultured using cell counting. To do this, 5.10^6 treated cells and 5.10^6 untreated cells were seeded in 10 ml of culture medium.\nThe initial JURKAT population was 5.10^6 cells per culture flask. The number of cells per culture flask was then counted by Vi-cell.\nTo do this, the culture medium with the cells was centrifuged at 1500 rpm for 5 minutes and the pellet was resuspended in supplemented RPMI culture medium. Depending on the cell density, a 1/10 dilution in PBS could be performed.\nThe percentage inhibition of cell proliferation on day n (Dn) was determined by the following formula:\n% PI(Dn)=100−% P(Dn) [Math. 2]\nin which % P(Dn) is the cell proliferation rate at n days, determined by the following formula: […]"}, "[2]": {"tested_on": "JURKAT cells", "assay": "Apoptosis test (annexin-V FITC / propidium iodide flow cytometry), delta-apoptosis", "assay_type": "cell-based, human", "procedure": "To obtain the desired quantity of JURKAT cells, they were cultured in an RPMI 1640 medium supplemented with foetal calf serum (10% v/v), 1% L-glutamine (Lonza) and 1% penicillin-streptomycin (Lonza). Cells were grown in culture flasks placed in an incubator at 37° C. and 5% CO2. The JURKAT doubling time was approximately 27 hours.\nThe cells were suspended in a solution of PBS (phosphate buffer saline) or in a 2% haematocrit solution comprising 1/14 of the anticoagulant ACD-A, a 50/50 v/v mixture of NaCl and plasma. The final volume was such that the thickness of the cell suspension in the container was around 3 mm.\nIn the case of UVA irradiation, the cell solution also contained 200 ng/ ml or 333° ng/ml of 8-MOP.\nAt the end of the irradiation step, the cell solutions with a haematocrit level of 2% are washed in order to recover as many JURKAT cells as possible for culture with low contamination by red blood cells. To do this, the components were separated by density gradient using a Ficoll solution (GE Healthcare).\nAfter JURKAT isolation, the cells were washed three times to remove the Ficoll solution. The first two washes were performed in a PBS solution with 2 mM EDTA (Thermo Fisher), and the third was performed in a PBS solution. The cells were then re-suspended in supplemented RPMI medium and counted using Vi-cell and ABX in order to estimate the number of JURKAT that had been isolated and to assess the quantity of residual red blood cells.\nas §1\nApoptosis was studied by flow cytometry, using double labelling of cells with annexin-V coupled to a fluorophore FITC and propidium iodide (PI).\nDelta-apoptosis was determined by the following formula:\nΔapoptosis=(% apoptosis of treated cells−% apoptosis of untreated cells) [Math. 1]"}, "[3]": {"settings": "JURKAT cells 330.10^6 in 300 ml, 2% haematocrit plasma/saline, 333 ng/ml 8-MOP, bag, Macogenic G2 (Maco Pharma ECP system)"}},
  "data": [
    {"compound": "COc1c2occc2cc2ccc(=O)oc12", "note": "[8-MOP, 8-methoxypsoralen]", "values": [
      {"measurement": "UVA dose from which acceptance criterion in terms of proliferation inhibition was achieved", "setting": "[1]; [3]", "value": "≥ 2", "unit": "J/cm^2"},
      {"measurement": "UVA dose meeting the acceptance criterion in terms of inhibition of proliferation", "setting": "[1]; JURKAT cells in PBS, 200 ng/ml 8-MOP, Petri dish, BS02 irradiator, criterion inhibition >70% 3 days after irradiation", "value": 0.13, "unit": "J/cm^2"},
      {"measurement": "UVA dose at which acceptance criterion for rate of proliferation inhibition was reached", "setting": "[1]; JURKAT cells in plasma/saline 50/50, 2% haematocrit, 333 ng/ml 8-MOP, Petri dish, BS02 irradiator, D+3", "value": 3, "unit": "J/cm^2"},
      {"measurement": "UVA dose from which acceptance criterion in terms of delta-apoptosis was achieved", "setting": "[2]; [3]", "value": "≥ 2", "unit": "J/cm^2"},
      {"measurement": "UVA dose meeting the acceptance criterion in terms of delta-apoptosis", "setting": "[2]; JURKAT cells in PBS, 200 ng/ml 8-MOP, Petri dish, BS02 irradiator, criterion delta-apoptosis 30-40% one day, 50-60% two days after irradiation", "value": 0.13, "unit": "J/cm^2"},
      {"measurement": "rate of cell necrosis", "setting": "[2]; JURKAT cells in PBS, 200 ng/ml 8-MOP, all doses of UVA radiation tested (0.03-0.4 J/cm^2)", "value": "below 1%"},
      {"measurement": "equivalent UVA dose (sigmoidal model of delta-apoptosis), BS02 irradiator", "setting": "[2]; JURKAT cells in plasma, 333 ng/ml 8-MOP, BS02 irradiator in UVA", "value": 4, "unit": "J/cm^2"},
      {"measurement": "equivalent UVA dose (sigmoidal model of delta-apoptosis), Macogenic G2", "setting": "[2]; JURKAT cells in plasma, 333 ng/ml 8-MOP, delivered with Macogenic G2", "value": 2.1, "unit": "J/cm^2"},
      {"measurement": "UVA dose at which acceptance criterion for delta-apoptosis was reached", "setting": "[2]; JURKAT cells in plasma/saline 50/50, 2% haematocrit, 333 ng/ml 8-MOP, Petri dish, BS02 irradiator", "value": 4, "unit": "J/cm^2"}
    ]}
  ]
}
